This note sets out measurements from PMC6017115, “Inhibitory Effect of Sauchinone on UDP-Glucuronosyltransferase (UGT) 2B7 Activity” (Molecules : A Journal of Synthetic Chemistry and Natural …, 2018).

By Ki is commonly meant a measure of affinity in units of concentration, obtained from inhibition or displacement. A lower Ki goes with a stronger hold on the target. In general, IC50 refers to the concentration needed to halve the response being measured.

In data set [1] the target is T1, UGT2B7 (Homo sapiens, UniProt P16662).
T1 sequence (P16662 24-529): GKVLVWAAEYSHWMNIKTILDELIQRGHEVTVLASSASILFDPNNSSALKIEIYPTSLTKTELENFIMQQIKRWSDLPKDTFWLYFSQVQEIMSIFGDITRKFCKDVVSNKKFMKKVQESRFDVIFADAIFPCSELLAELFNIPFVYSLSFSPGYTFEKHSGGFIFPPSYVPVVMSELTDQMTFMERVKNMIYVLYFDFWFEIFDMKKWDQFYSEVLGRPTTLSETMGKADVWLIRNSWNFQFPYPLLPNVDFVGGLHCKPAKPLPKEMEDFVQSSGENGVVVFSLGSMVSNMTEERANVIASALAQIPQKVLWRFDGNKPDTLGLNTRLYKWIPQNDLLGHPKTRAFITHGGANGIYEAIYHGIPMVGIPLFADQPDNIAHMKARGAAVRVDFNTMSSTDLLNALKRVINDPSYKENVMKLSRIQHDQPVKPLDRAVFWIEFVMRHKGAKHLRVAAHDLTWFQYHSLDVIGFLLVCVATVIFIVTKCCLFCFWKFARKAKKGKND
The data set can be described thus: Enzyme kinetic assay (Ki, Dixon plot) of UGT2B7-mediated zidovudine glucuronidation. Conditions: for inhibition mode on UGT2B7: Dixon plot, visual inspection. The procedure:
Inhibitory effects of sauchinone on UGT1A1, 1A3, 1A4, 1A6, 1A9, and 2B7 activities were evaluated using HLMs. […] Spiked volume of UGT cocktail set was 1% (v/v) of total volume of mixture. […] The reaction was initiated by adding 5 mM UDPGA to a final volume of 150 μL and incubated at 37 °C for 15 or 60 min in a thermomixer at 500 rpm. Each reaction was stopped by adding 150 μL of ice-cold methanol containing 50 ng/mL IS. These mixtures were then centrifuged (12,000 rpm for 10 min at 4 °C) and 5 μL of the supernatant was injected into a UPLC-MS/MS system. […] Their IC50 values were compared to that of sauchinone. All inhibitors were dissolved in methanol (except for hecogenin, which was dissolved in dimethyl sulfoxide) and serially diluted to the required concentrations using the same solutions. The final concentration of organic solvent of inhibitors was 1% (v/v). All studies were performed in triplicate and mean values were used in the analysis. The half maximal inhibition constant (IC50) of sauchinone on UGT isoforms was estimated using GraphPad program.
Based on IC50 values, Ki values of sauchinone for UGT1A6 and 2B7 were determined. Concentrations of 0–200 μM of sauchinone were used. Other procedures were similar to those mentioned above in the study of reversible inhibitory effects of sauchinone. Inhibitory characteristics of sauchinone were initially estimated by nonlinear least squares regression analysis and Ki values were determined by Dixon plots.

Data set [2] addresses T2, UGT1A4 (Homo sapiens, UniProt P22310).
T2 construct: The reaction mixture containing 0.25 mg/mL protein of HLM; tissue Corning Life Sciences 452156; host or cells: pooled human liver microsomes, 50 donors
T2 sequence (P22310 29-534): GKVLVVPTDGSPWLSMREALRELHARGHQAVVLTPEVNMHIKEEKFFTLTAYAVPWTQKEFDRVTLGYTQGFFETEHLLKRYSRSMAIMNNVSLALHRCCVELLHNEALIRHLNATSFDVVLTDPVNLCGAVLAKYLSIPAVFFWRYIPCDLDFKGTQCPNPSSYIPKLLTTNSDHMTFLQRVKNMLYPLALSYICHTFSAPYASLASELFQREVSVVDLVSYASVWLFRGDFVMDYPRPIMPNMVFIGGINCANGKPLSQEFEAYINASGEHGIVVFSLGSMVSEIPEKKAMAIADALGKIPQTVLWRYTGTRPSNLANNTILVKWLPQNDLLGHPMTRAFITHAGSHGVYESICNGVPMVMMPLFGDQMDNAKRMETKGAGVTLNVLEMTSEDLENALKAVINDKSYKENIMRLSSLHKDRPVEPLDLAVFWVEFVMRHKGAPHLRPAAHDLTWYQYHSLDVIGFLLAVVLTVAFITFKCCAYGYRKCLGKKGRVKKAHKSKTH
The data set can be described thus: Inhibition of UGT1A4 (trifluoperazine glucuronidation) in human liver microsomes. Type of data set: in vitro ADME. The note with it: human liver microsomes. Here is the method: Their IC50 values were compared to that of sauchinone. […] UGT-mediated activities in the presence of sauchinone as an inhibitor were expressed as percentages of corresponding control values (in absence of sauchinone). From percentages of control activity versus inhibitor concentrations, a sigmoid shaped curve was fitted to the data and IC50 as an enzyme inhibition parameter was calculated by fitting the Hill equation to the data using GraphPad Prism 5 (GraphPad Software Inc., San Diego, CA, USA).
Background: Liver microsomes are a subcellular fraction often used to study metabolism.

The test system of data set [3] is Ugt2b7. The data set can be described thus: Ki for Ugt2b7 in mouse liver microsomes. The note with it: our unpublished data. It counts as in vitro ADME.
Data set [4] relates to Ugt2b7. The data set can be described thus: Inhibition of Ugt2b7 (zidovudine) in mice liver microsomes. The note with it: mouse, pH 7.6, probe zidovudine (100 μM, in UGT substrate cocktail). Type of data set: in vitro ADME. The procedure:
Their IC50 values were compared to that of sauchinone. […] Mice were sacrificed and then livers were removed and rinsed with saline. After weighing the livers, they were homogenized with a four-fold volume of ice-cold homogenizing buffer (0.154 M KCl, 50 mM Tris-base, 1 mM EDTA, pH 7.4). After centrifugation for 35 min at 9000× g and 4 °C, the supernatants were centrifuged for 95 min at 100,000× g and at 4 °C. The supernatants were discarded and the pellets were homogenized again with ice-cold homogenizing buffer. These aliquots were stored at −80 °C. The subsequent process to evaluate the inhibitory effects of sauchinone on UGT activities in MLM was the same as those using HLM. UGT-mediated activities in the presence of sauchinone as an inhibitor were expressed as percentages of corresponding control values (in absence of sauchinone). From percentages of control activity versus inhibitor concentrations, a sigmoid shaped curve was fitted to the data and IC50 as an enzyme inhibition parameter was calculated by fitting the Hill equation to the data using GraphPad Prism 5 (GraphPad Software Inc., San Diego, CA, USA).

As for `C[C@@H]1[C@H]2c3cc4c(cc3O[C@@]35OCOC3=CC(=O)[C@H](C[C@H]1C)[C@@H]25)OCO4` [Sauchinone], the figures for the Ki in data set [1] and in data set [3] were 0.524 µM and 3.34 µM, respectively. The “inhibition mode on UGT2B7” value in data set [1] is “noncompetitively inhibited”; in data set [1] (listed as sauchinone), “noncompetitive inhibition mode”. Moreover, the “Vmax for UGT2B7-mediated zidovudine glucuronidation with inhibitor” value in data set [1] (sauchinone as inhibitor at 50 μM (decrease from 31.5 at 0 μM)) was determined as 0.495 μM/min/mg protein. For the same compound, the “inhibitory effect on UGT1A4 activity” value in data set [2] (sauchinone up to 200 μM) is “negligible inhibitory effect”. The IC50 is greater than 200 µM in data set [2] (substrate 40 μM trifluoperazine, mean (minimum–maximum), read-out: IC50 for inhibition of UGT1A4) and 23 µM in data set [4].
